Measurements published in US20030219491A1, “Compositions for inhibiting tumor growth and methods thereof” (priority 2002, published 2003).

Tests used:
[1] = biological target: polyhemoglobin-tyrosinase complex (bovine hemoglobin crosslinked with mushroom tyrosinase) (Bos taurus, UniProt P01966+P02070); details: crosslink time 24 h; versus pure bovine hemoglobin in free form
[2] = test system: tyrosinase from mushroom, encapsulated (1020 U/3 ml); test: Apparent Vmax and apparent Km of encapsulated tyrosinase; format: biochemical; details: substrate tyrosine
From the text: (§1) L-tyrosine (98% TLC), hemoglobin from bovine (lyophilized powder), hemoglobin assay kit, tyrosinase from mushroom (3400 U/mg manufacturer's stated activity) were purchased from Sigma-Aldrich (Oakville, Canada). Collodion was obtained from Fisher Scientific (Nepean, Canada). Glutaraldehyde (25%) was obtained from Polyscienes (Warrington, Pa.). Purified bovine hemoglobin was purchased from Biopure Corporation (Boston, Mass.). All other reagents were of analytical grade.
One gram hemoglobin and 200 mg […] was dissolved in 10 ml double distilled deionized water. Stir with a metal rod until everything is dissolved. Gravity filter the solution through a Waterman #42 filter into a Erlenmeyer flask. Take 2.5 ml of this 10 g/dl hemoglobin solution and was encapsulated within spherical, ultrathin, cellulose nitrate membrane. Without tyrosinase loaded microcapsules were administrated orally to control group. For tyrosinase loaded microencapsules, […] of 3400 U/mg tyrosinase was dissolved in 2.5 ml 10% hemoglobin solution, then followed the methods described above to immobilize tyrosinase in collodion membrane microcapsules. Microcapsules prepared as a 50% suspension for later feeding. […]
Next, the apparent Vmax and apparent Km value for encapsulated tyrosinase (1020 U/3 ml) were studied. The leakage of encapsulated tyrosinase is also measured.

[3] = test system: tyrosinase from mushroom, free (1020 U/3 ml); test: Vmax and Km of free tyrosinase; format: biochemical; details: substrate tyrosine
From the text: as §1
This is to characterize the enzyme kinetics of the preparation and comparing this encapsulated tyrosinse preparation to free tyrosinase.

polyhemoglobin-tyrosinase complex (bovine hemoglobin crosslinked with mushroom tyrosinase), sequence (P01966 whole entry): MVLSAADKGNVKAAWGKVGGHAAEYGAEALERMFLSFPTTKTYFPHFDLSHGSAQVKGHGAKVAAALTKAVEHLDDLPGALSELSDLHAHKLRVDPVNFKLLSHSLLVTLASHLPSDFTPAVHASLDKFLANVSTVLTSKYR
polyhemoglobin-tyrosinase complex (bovine hemoglobin crosslinked with mushroom tyrosinase), sequence (P02070 whole entry): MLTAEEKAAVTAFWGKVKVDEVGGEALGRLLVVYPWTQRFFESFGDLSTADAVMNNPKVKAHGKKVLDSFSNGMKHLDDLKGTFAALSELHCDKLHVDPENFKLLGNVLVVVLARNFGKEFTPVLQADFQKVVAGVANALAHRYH

O=O [oxygen]
P50 (oxygen dissociation), difference from free hemoglobin [1]: no significant difference

N[C@@H](Cc1ccc(O)cc1)C(=O)O [tyrosine, L-tyrosine]
Apparent Vmax [2]: 49.02 mg/dl · min
Km [2]: 465 µM
Vmax [3]: 114.94 mg/dl · min
